Reference: BindingDB's records for doi:10.3109/14756366.2013.782024 (NAS of Ukraine, 2014)

Target: Casein kinase II subunit alpha/beta (Homo sapiens, UniProt P68400)
Assay: In Vitro Kinase Assay
Settings: pH 7.5; 30 °C
Description: Each test was performed twice in a total reaction volume of 30 μL, containing 6 μg of peptide substrate RRRDDDSDDD (New England Biolabs (UK) Ltd., Herts, UK); 10 units of recombinant human CK2 holoenzyme (New England Biolabs); 50 μM ATP and γ-labeled 32P ATP, diluted to specific activity 100 μCi/mM; CK2 buffer (20mM Tris-HCl, pH 7.5; 50mM KCl; 10mM MgCl2) and inhibitor in varying concentrations. Incubation time was 20 min at 30 °C. The reaction was stopped by adding an equal volume of 10% o-phosphoric acid and the reaction mixture was loaded onto 20-mm discs of phosphocellulose paper (Whatman plc, Kent, UK). Discs were washed three times with 1% o-phosphoric acid solution, air-dried at room temperature, and counted by the Cherenkov method in a beta-counter (LKB). As negative control an equal volume of DMSO was added to the reaction mixture. Quercetin, a known CK2 inhibitor, was used as an inhibition positive control. The final concentration of quercetin was 0.55 μM (which inhibited CK2 activity by 50%).

IC50	SMILES
14 µM	O=C(Nc1ccc(C(=O)O)c(O)c1)c1ccc(N2C(=O)CCS2(=O)=O)cc1 [4-{[4-(1,1-dioxido-3-oxoisothiazolidin-2-yl)benzoyl]amino}-2-hydroxybenzoic acid (23)]
1.5 µM	O=C(O)c1cccc(NC(=O)c2ccc(N3C(=O)CCS3(=O)=O)cc2Cl)c1 [3-{[2-chloro-4-(1,1-dioxido-3-oxoisothiazolidin-2-yl)benzoyl]amino}benzoic acid (31)]
8 µM	O=C(Nc1ccc(O)c(C(=O)O)c1)c1ccc(N2C(=O)CCS2(=O)=O)cc1 [5-{[4-(1,1-dioxido-3-oxoisothiazolidin-2-yl)benzoyl]amino}-2-hydroxybenzoic acid (22)]
6 µM	CC1CS(=O)(=O)N(c2ccc(C(=O)Nc3ccc(O)c(C(=O)O)c3)c(Cl)c2)C1=O (configuration not stated) [5-{[2-chloro-4-(4-methyl-1,1-dioxido-3-oxoisothiazolidin-2-yl)benzoyl]amino}-2-hydroxybenzoic acid (36)]
> 30 µM	CC1CS(=O)(=O)N(c2ccc(C(=O)NCCCC(=O)O)cc2)C1=O (configuration not stated) [4-{[4-(4-methyl-1,1-dioxido-3-oxoisothiazolidin-2-yl)benzoyl]amino}butanoic acid (42)]
3.5 µM	CC1CS(=O)(=O)N(c2ccc(C(=O)Nc3ccc(C(=O)O)c(O)c3)c(Cl)c2)C1=O (configuration not stated) [4-{[2-chloro-4-(4-methyl-1,1-dioxido-3-oxoisothiazolidin-2-yl)benzoyl]amino}-2-hydroxybenzoic acid (38)]
> 30 µM	CC1CS(=O)(=O)N(c2ccc(C(=O)NCCC(=O)O)cc2)C1=O (configuration not stated) [N-[4-(4-methyl-1,1-dioxido-3-oxoisothiazolidin-2-yl)benzoyl]-b-alanine (41)]
> 30 µM	CC1(C)CS(=O)(=O)N(c2ccc(C(=O)Nc3ccc(C(=O)O)c(O)c3)cc2)C1=O [4-{[4-(4,4-dimethyl-1,1-dioxido-3-oxoisothiazolidin-2-yl)benzoyl]amino}-2-hydroxybenzoic acid (30)]
16 µM	CC1CS(=O)(=O)N(c2ccc(C(=O)Nc3cc(C(=O)O)ccc3O)cc2)C1=O (configuration not stated) [4-hydroxy-3-{[4-(4-methyl-1,1-dioxido-3-oxoisothiazolidin-2-yl)benzoyl]amino}benzoic acid (26)]
> 30 µM	COC(=O)c1cc(NC(=O)c2ccc(N3C(=O)C(C)CS3(=O)=O)cc2Cl)ccc1O (configuration not stated) [Methyl 5-{[2-chloro-4-(4-methyl-1,1-dioxido-3-oxoisothiazolidin-2-yl)benzoyl]amino}-2-hydroxybenzoate (39)]
> 30 µM	CC1CS(=O)(=O)N(c2ccc(C(=O)NCC(=O)O)cc2)C1=O (configuration not stated) [N-[4-(4-methyl-1,1-dioxido-3-oxoisothiazolidin-2-yl)benzoyl]glycine (40)]
8 µM	CC1(C)CS(=O)(=O)N(c2ccc(C(=O)Nc3cccc(C(=O)O)c3)cc2)C1=O [3-{[4-(4,4-dimethyl-1,1-dioxido-3-oxoisothiazolidin-2-yl)benzoyl]amino}benzoic acid (28)]
3.6 µM	CC1CS(=O)(=O)N(c2ccc(C(=O)Nc3cccc(C(=O)O)c3)c(Cl)c2)C1=O (configuration not stated) [3-{[2-chloro-4-(4-methyl-1,1-dioxido-3-oxoisothiazolidin-2-yl)benzoyl]amino}benzoic acid (35)]
3.1 µM	CC1CS(=O)(=O)N(c2ccc(C(=O)Nc3cccc(C(=O)O)c3)cc2)C1=O (configuration not stated) [3-{[4-(4-methyl-1,1-dioxido-3-oxoisothiazolidin-2-yl)benzoyl]amino}benzoic acid (24)]
19.5 µM	CC1CS(=O)(=O)N(c2ccc(C(=O)Nc3ccc(C(=O)O)c(O)c3)cc2)C1=O (configuration not stated) [2-hydroxy-4-{[4-(4-methyl-1,1-dioxido-3-oxoisothiazolidin-2-yl)benzoyl]amino}benzoic acid (27)]
> 30 µM	CC1(C)CS(=O)(=O)N(c2ccc(C(=O)Nc3ccc(O)c(C(=O)O)c3)cc2)C1=O [5-{[4-(4,4-dimethyl-1,1-dioxido-3-oxoisothiazolidin-2-yl)benzoyl]amino}-2-hydroxybenzoic acid (29)]
3.7 µM	CC1CS(=O)(=O)N(c2ccc(C(=O)Nc3cc(C(=O)O)ccc3O)c(Cl)c2)C1=O (configuration not stated) [3-{[2-chloro-4-(4-methyl-1,1-dioxido-3-oxoisothiazolidin-2-yl)benzoyl]amino}-4-hydroxybenzoic acid (37)]
> 30 µM	CC1CS(=O)(=O)N(c2ccc(C(=O)Nc3ccc(O)c(C(=O)O)c3)cc2)C1=O (configuration not stated) [2-hydroxy-5-{[4-(4-methyl-1,1-dioxido-3-oxoisothiazolidin-2-yl)benzoyl]amino}benzoic acid (25)]
3 µM	O=C(O)c1ccc(NC(=O)c2ccc(N3C(=O)CCS3(=O)=O)cc2Cl)cc1O [4-{[2-chloro-4-(1,1-dioxido-3-oxoisothiazolidin-2-yl)benzoyl]amino}-2-hydroxybenzoic acid (33)]
1.8 µM	O=C(O)c1cccc(NC(=O)c2ccc(N3C(=O)CCS3(=O)=O)cc2)c1 [3-{[4-(1,1-dioxido-3-oxoisothiazolidin-2-yl)benzoyl]amino}benzoic acid (21)]
9 µM	O=C(O)c1cc(NC(=O)c2ccc(N3C(=O)CCS3(=O)=O)cc2Cl)ccc1O [5-{[2-chloro-4-(1,1-dioxido-3-oxoisothiazolidin-2-yl)benzoyl]amino}-2-hydroxybenzoic acid (32)]
> 30 µM	O=C(O)c1ccc(NC(=O)c2ccc(N3C(=O)CCS3(=O)=O)cc2Cl)cc1 [4-{[2-chloro-4-(1,1-dioxido-3-oxoisothiazolidin-2-yl)benzoyl]amino}benzoic acid (34)]
